Assay results taken from patent US9416162B2, “Peptides having reduced toxicity that stimulate cholesterol efflux” (The Regents of the University of California, priority 2013, dated 2016).
Non-standard residues stand in square brackets, D forms with d. Residues, ends and D or L forms follow the SMILES beside them. No end group written: not given here. Cit = NC(=O)NCCC[C@H](N)C(=O)O

How the values were obtained:
[1] = Scaled Parameters = (Raw Parameters + 2.061)/4.484; cited from earlier work
C57Bl/6 mice = test: Safety and TG elevating effects after IP injection in C57Bl/6 mice (plasma CPK, ALT, AST, lipids); type: in vivo; conditions: for cytotoxic/toxic response (plasma CPK, ALT, AST) / muscle toxicity (plasma CPK activity): plasma 4 h after injection
Method: The high-dose cytotoxic response of ATI-5261 observed in rat, rabbit and cynomolgus monkey is additionally recapitulated in mice (FIG. 4). Male chow-fed C57bl/6 mice were injected intraperitonelly (IP) with 30 or 300 mg/kg of lipid-fee ATI-5261. Blood was collected via the retro-orbital plexus 4 h after peptide injection and plasma subsequently obtained for measurement of CPK (Panel A) and ALT and AST activities (Panel B, ALT left bars; AST, right bars). Values are means±SD, n=4 mice per group.
This example illustrates that aromatic phenylalanine residues associated with the non-polar surface of ATI-5261 contributed to the majority of the peptide toxicity (FIG. 5). […] Blood was collected via retro-orbital plexus 4 h after injection for isolation of plasma. Levels of plasma CPK (Panel A), ALT (panel B) and AST (Panel C) were determined as described in FIG. 1. Values are means±SD, n=4 mice per group.
All values (mg/dl) are means±SD, n=4, determined at 4 and 6 h post treatment with peptide.

ABCA1 [2] = molecular target: T1, ABCA1 (Mus musculus, UniProt P41233); test: ABCA1-dependent [3H]cholesterol efflux from J774 macrophages with and without cAMP; type: cell-based; conditions: cAMP treated J774 cells; for efficiency of stimulating cholesterol efflux (concentration dependence): dose response; for Km for cholesterol efflux / peptide concentration at saturation in cholesterol efflux: increasing concentration of peptides, 4 h
T1 construct: treated (18 h) with a cAMP analog to induce ABCA1 protein expression; endogenous in cells; host or cells: J774 macrophages
Source text: Suitable cholesterol efflux assays are described in, e.g., Bielicki, J. K and Oda, M. N., Biochemistry, 41:2089-2096 (2002); Jia et al., Biochem. Biophys. Res. Common., 297:206-213 (2002). In some embodiments, a polypeptide known to mediate cholesterol efflux (e.g., helix 9/10 of Apo A-I) is used to screen for additional mediators of cholesterol efflux in a cell based assay. For example, cell lines in which cholesterol efflux can be enhanced using a cAMP analog that up-regulates ABCA1 protein expression (e.g., J774 macrophages) can conveniently be used to assess the ability of a polypeptide of the present invention to mediate cholesterol efflux. The cells are incubated with labeled cholesterol (e.g., [^3H]cholesterol) under conditions appropriate for cholesterol uptake by the cells. Thus, cAMP or cAMP analogs (e.g., CPT-cAMP) are incubated with the cells for a suitable time before the initiation of cellular cholesterol efflux, i.e., prior to contacting the cells with a test polypeptide. Measurement of labeled cholesterol appearing in the medium is used to determine the cholesterol efflux mediating activity of the test polypeptide.
Aliphatic analogs of ATI-5261 lacking phenylalanine residues retained potent ABCA1 selective cholesterol efflux activity (FIG. 7). J774 macrophages were labeled (48 h) with [^3H]cholesterol and treated (18 h) with a cAMP analog to induce ABCA1 protein expression; cells incubated in the absence of cAMP (left bars) served as controls. […] Peptides were used at a concentration of 30 μg/ml, which was maximal for promoting cholesterol efflux activity. Panel B—Dependence of cholesterol efflux on the concentration of peptides. […] Results are expressed as the difference in cholesterol efflux (%/4 h) observed using cAMP treated vs. non-treated J774 cells. Values are means±SD, n=3.

ABCA1 [3] = molecular target: T1, ABCA1; test: as above; type: cell-based; set-up: ABCA1-dependent cholesterol efflux: dose or concentration left out as unconfirmed; conditions: for ABCA1-dependent cholesterol efflux: J774 with/without cAMP, acceptors lipid-free, 4 h
[4] = male chow-fed C57Bl/6 mice, IP 300 mg/kg

T1 sequence (P41233 whole entry): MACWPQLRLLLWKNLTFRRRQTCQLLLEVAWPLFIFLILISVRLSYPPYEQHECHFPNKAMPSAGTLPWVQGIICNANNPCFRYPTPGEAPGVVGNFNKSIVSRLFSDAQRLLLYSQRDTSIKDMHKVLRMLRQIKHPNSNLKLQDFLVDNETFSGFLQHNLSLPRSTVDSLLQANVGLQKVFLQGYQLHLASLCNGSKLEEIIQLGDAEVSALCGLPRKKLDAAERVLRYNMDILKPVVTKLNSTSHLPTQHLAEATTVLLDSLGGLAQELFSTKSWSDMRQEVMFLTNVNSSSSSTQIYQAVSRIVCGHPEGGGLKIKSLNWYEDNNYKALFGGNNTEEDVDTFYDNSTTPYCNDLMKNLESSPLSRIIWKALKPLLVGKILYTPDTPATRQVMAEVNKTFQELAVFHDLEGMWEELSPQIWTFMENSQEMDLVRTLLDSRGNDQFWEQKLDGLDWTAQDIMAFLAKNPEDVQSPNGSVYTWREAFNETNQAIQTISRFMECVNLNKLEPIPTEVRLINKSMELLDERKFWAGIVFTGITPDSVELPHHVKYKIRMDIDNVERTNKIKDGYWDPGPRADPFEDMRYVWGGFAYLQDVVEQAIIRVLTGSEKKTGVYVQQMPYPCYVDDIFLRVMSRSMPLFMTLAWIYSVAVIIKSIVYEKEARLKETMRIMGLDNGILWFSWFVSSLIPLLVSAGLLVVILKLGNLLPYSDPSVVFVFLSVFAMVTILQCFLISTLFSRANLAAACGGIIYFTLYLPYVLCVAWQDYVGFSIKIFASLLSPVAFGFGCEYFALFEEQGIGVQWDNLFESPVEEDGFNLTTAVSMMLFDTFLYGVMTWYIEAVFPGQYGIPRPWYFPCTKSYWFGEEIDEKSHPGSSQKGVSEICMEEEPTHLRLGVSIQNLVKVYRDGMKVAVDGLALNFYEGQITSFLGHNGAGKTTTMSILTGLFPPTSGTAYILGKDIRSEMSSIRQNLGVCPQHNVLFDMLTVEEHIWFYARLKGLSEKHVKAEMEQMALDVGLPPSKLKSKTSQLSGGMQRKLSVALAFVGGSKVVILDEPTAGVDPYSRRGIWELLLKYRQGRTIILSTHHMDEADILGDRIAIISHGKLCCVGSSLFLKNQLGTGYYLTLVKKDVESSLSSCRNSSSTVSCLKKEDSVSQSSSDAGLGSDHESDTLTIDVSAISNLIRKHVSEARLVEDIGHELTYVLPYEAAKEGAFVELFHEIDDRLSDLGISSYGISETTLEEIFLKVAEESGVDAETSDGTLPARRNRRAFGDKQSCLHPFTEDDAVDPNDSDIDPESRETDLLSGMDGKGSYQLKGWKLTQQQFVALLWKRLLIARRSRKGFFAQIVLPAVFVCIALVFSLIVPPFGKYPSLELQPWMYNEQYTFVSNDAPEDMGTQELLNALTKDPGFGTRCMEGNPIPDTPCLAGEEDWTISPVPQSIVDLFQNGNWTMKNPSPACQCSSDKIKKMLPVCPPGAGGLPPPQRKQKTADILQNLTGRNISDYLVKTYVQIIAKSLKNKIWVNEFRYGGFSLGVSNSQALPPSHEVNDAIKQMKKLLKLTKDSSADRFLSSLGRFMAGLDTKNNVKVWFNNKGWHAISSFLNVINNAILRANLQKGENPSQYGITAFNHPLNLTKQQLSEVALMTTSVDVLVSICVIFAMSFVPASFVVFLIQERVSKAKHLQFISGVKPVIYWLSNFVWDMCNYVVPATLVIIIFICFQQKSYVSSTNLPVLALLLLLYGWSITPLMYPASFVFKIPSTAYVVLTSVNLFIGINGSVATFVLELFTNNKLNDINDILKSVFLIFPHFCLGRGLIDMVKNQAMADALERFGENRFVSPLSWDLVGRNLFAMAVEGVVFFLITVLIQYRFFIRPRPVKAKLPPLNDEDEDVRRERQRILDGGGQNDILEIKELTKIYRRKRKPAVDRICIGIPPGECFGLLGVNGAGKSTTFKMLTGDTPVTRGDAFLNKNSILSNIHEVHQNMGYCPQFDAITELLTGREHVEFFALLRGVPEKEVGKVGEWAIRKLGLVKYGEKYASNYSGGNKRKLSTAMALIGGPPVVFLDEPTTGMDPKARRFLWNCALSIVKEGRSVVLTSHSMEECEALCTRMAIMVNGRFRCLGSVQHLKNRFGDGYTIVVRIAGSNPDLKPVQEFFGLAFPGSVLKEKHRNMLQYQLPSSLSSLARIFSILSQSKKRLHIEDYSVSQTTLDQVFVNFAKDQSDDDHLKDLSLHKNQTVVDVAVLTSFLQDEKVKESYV

N[C@@H](Cc1ccc(O)cc1)C(=O)O [Tyrosine]
Hydrophobicity (scaled computational log(P)) [1]: 0.880

EARSKAEEWLAALRELAEELLARAKS [T5505-12]
TG elevating effects (plasma TG) (C57Bl/6 mice; [4]): greatly ablated | cytotoxic/toxic response (plasma CPK, ALT, AST) (C57Bl/6 mice; [4]): low toxicity

EVRSKLEEWLAALRELAEELLARAKS [T4883-6]
TG elevating effects (plasma TG) (C57Bl/6 mice; [4]): further reduced | cytotoxic/toxic response (plasma CPK, ALT, AST) (C57Bl/6 mice; [4]): further reduced cytotoxic response | muscle toxicity (plasma CPK activity) (C57Bl/6 mice; [4]): eliminate the residual muscle toxicity

EARSKAEEWLAALLELAEELLARAKS [T5211-2]
cytotoxic/toxic response (plasma CPK, ALT, AST) (C57Bl/6 mice; [4]): little or no toxic responses

EVRSKLEEWIAAIREIAEEILARLKS [T6991-1]
muscle toxicity (plasma CPK activity) (C57Bl/6 mice; [4]): little or no cytotoxic properties

T5505-9: ATI-5261 analog with L24A; W9L substitutions (EVRSKLEELLAALRELAEELLARAKS; synthetic amphipathic alpha-helix cholesterol efflux peptide T5505-9, LeuATI-5261 analog)
TG elevating effects (plasma TG) (C57Bl/6 mice; [4]): markedly reduced | plasma ALT and/or AST (general, hepatic toxicity) (C57Bl/6 mice; [4]): markedly reduced | muscle toxicity (plasma CPK activity) (C57Bl/6 mice; [4]): markedly reduced | efficiency of stimulating cholesterol efflux (concentration dependence) (ABCA1 [2]): high efficiency | Km for cholesterol efflux (ABCA1 [2]): 0.58 µg/mL | peptide concentration at saturation in cholesterol efflux (ABCA1 [2]): ~3 µg/mL

N[C@@H](Cc1ccccc1)C(=O)O [Phenylalanine]
Hydrophobicity (scaled computational log(P)) [1]: 1.00

EVNSKLEEWLAALNELAEELLARLKS [T5766-4]
muscle toxicity (plasma CPK activity) (C57Bl/6 mice; [4]): greatly reduced

N[C@@H](Cc1c[nH]cn1)C(=O)O [Histidine]
Hydrophobicity (scaled computational log(P)) [1]: 0.165

C[C@H](N)C(=O)O [Alanine]
Hydrophobicity (scaled computational log(P)) [1]: 0.616

N[C@@H](Cc1c[nH]c2ccccc12)C(=O)O [Tryptophan]
Hydrophobicity (scaled computational log(P)) [1]: 0.878

EVRSKLEEWLAALRELAEELLARLKS [T5055-13]
plasma TG, total and unesterified (free) cholesterol (FC) (C57Bl/6 mice; C57Bl/6 mice, 300 mg/kg, 4 and 6 h post treatment): greatly attenuated | muscle toxicity (plasma CPK activity) (C57Bl/6 mice; [4]): residual toxicity

apoA-I: Apolipoprotein A-I, native apolipoprotein used lipid-free as cholesterol efflux acceptor
ABCA1-dependent cholesterol efflux (ABCA1 [3]): High-levels of cholesterol efflux

C[C@@H](O)[C@H](N)C(=O)O [Threonine]
Hydrophobicity (scaled computational log(P)) [1]: 0.450

N=C(N)NCCC[C@H](N)C(=O)O [Arginine]
Hydrophobicity (scaled computational log(P)) [1]: 0.000

O=C(O)[C@@H]1CCCN1 [Proline]
Hydrophobicity (scaled computational log(P)) [1]: 0.711

CC(C)[C@H](N)C(=O)O [Valine]
Hydrophobicity (scaled computational log(P)) [1]: 0.825

NC(=O)C[C@H](N)C(=O)O [Asparagine]
Hydrophobicity (scaled computational log(P)) [1]: 0.236

CC[C@H](C)[C@H](N)C(=O)O [Isoleucine]
Hydrophobicity (scaled computational log(P)) [1]: 0.943

NCC(=O)O [Glycine]
Hydrophobicity (scaled computational log(P)) [1]: 0.501

CC[C@H](C)[C@H](NC(=O)[C@H](C)NC(=O)[C@H](C)NC(=O)[C@@H](NC(=O)[C@H](Cc1c[nH]c2ccccc12)NC(=O)[C@H](CCC(=O)O)NC(=O)[C@H](CCC(=O)O)NC(=O)[C@H](CC(C)C)NC(=O)[C@H](CCCCN)NC(=O)[C@H](CO)NC(=O)[C@H](CCCNC(N)=O)NC(=O)[C@@H](NC(=O)[C@@H](N)CCC(=O)O)C(C)C)[C@@H](C)CC)C(=O)N[C@@H](CCCNC(N)=O)C(=O)N[C@@H](CCC(=O)O)C(=O)N[C@H](C(=O)N[C@@H](C)C(=O)N[C@@H](CCC(=O)O)C(=O)N[C@@H](CCC(=O)O)C(=O)N[C@H](C(=O)N[C@@H](CC(C)C)C(=O)N[C@@H](C)C(=O)N[C@@H](CCCNC(=N)N)C(=O)N[C@@H](CC(C)C)C(=O)N[C@@H](CCCCN)C(=O)N[C@@H](CO)C(=O)O)[C@@H](C)CC)[C@@H](C)CC [T6991-2, EVC*SKLEEWIAAIC*EIAEEILARLKS (SEQ ID NO:3)] (H-EV[Cit]SKLEEWIAAI[Cit]EIAEEILARLKS-OH)
muscle toxicity (plasma CPK activity) (C57Bl/6 mice; [4]): little or no cytotoxic properties

EVRSKLEEWFAAFREFAEEFLARL [T5766-5]
cytotoxic/toxic response (plasma CPK, ALT, AST) (C57Bl/6 mice; [4]): reduce the toxic responses | muscle toxicity (plasma CPK activity) (C57Bl/6 mice; [4]): greatly reduced muscle toxicity

NCCCC[C@H](N)C(=O)O [Lysine]
Hydrophobicity (scaled computational log(P)) [1]: 0.283

N[C@@H](CCC(=O)O)C(=O)O [Glutamate]
Hydrophobicity (scaled computational log(P)) [1]: 0.043

EVRSKLEEWLAALRELAEELAARLKS [T4883-7]
TG elevating effects (plasma TG) (C57Bl/6 mice; [4]): further reduced | cytotoxic/toxic response (plasma CPK, ALT, AST) (C57Bl/6 mice; [4]): further reduced cytotoxic response | muscle toxicity (plasma CPK activity) (C57Bl/6 mice; [4]): eliminate the residual muscle toxicity

apoE: Apolipoprotein E, native apolipoprotein used lipid-free as cholesterol efflux acceptor
ABCA1-dependent cholesterol efflux (ABCA1 [3]): High-levels of cholesterol efflux

EVKSKLEEWFAAFKEFAEEFLAKLKS [T5594-5]
cytotoxic/toxic response (plasma CPK, ALT, AST) (C57Bl/6 mice; [4]): displayed cytotoxic and TG elevating activity

T5554-4: E→Q analog carrying the favorable citrulline substitutions (EV[Cit]SKLQEWFAAFREFAEEFLARLKS)
cytotoxic/toxic response (plasma CPK, ALT, AST) (C57Bl/6 mice; [4]): retained strong toxic (CPK, ALT, and AST) and TG elevating responses

EVRSKLQEWFAAFREFAQEFLARLKS [T5554-1]
cytotoxic/toxic response (plasma CPK, ALT, AST) (C57Bl/6 mice; [4]): large increase in the toxic response

CSCC[C@H](N)C(=O)O [Methionine]
Hydrophobicity (scaled computational log(P)) [1]: 0.738

T5554-5: E→Q analog carrying the favorable citrulline substitutions, net-charge −1 (EV[Cit]SKLQEWFAAF[Cit]EFAQEFLARLKS)
cytotoxic/toxic response (plasma CPK, ALT, AST) (C57Bl/6 mice; [4]): retained strong toxic (CPK, ALT, and AST) and TG elevating responses

Y26 form of CS6253: CS6253 with a S26→Y substitution to facilitate labeling with 125I (SEQ ID NO:87) (EV[Cit]SKLEEWLAAL[Cit]ELAEELLARLKY)
ABCA1-dependent cholesterol efflux activity (ABCA1 [3]; J774 macrophages with/without cAMP, peptide 10 μg/ml): mediating high-levels of cholesterol efflux

EVRSKLEEWFAAFREFAEEFLARLNS [T5594-4]
muscle toxicity (plasma CPK activity) (C57Bl/6 mice; [4]): greatly reduced muscle toxicity

EVQSKLEEWLAALQELAEELLARLKS [T5766-3]
muscle toxicity (plasma CPK activity) (C57Bl/6 mice; [4]): greatly reduced

T6275-5: citrulline form of LeuATI-5261 with single citrulline14→L substitution (EV[Cit]SKLEEWLAALLELAEELLARLKS)
efficiency of stimulating cholesterol efflux (concentration dependence) (ABCA1 [2]): highly efficient manner | Km for cholesterol efflux (ABCA1 [2]): low Km | peptide concentration at saturation in cholesterol efflux (ABCA1 [2]): 3 µg/mL
